Data on 11 molecules can be found in patent US11524966B1 (Valo Early Discovery, Inc., priority 2017, dated 2022).

The IC50 is the midpoint of a concentration-inhibition curve.

The assay deals with T1, USP25 (USP25-His6, Boston Biochem E-546) (Homo sapiens, UniProt Q9UHP3).
T1 construct: His6; purchased Boston Biochem E-546
T1 sequence (Q9UHP3 1-1055): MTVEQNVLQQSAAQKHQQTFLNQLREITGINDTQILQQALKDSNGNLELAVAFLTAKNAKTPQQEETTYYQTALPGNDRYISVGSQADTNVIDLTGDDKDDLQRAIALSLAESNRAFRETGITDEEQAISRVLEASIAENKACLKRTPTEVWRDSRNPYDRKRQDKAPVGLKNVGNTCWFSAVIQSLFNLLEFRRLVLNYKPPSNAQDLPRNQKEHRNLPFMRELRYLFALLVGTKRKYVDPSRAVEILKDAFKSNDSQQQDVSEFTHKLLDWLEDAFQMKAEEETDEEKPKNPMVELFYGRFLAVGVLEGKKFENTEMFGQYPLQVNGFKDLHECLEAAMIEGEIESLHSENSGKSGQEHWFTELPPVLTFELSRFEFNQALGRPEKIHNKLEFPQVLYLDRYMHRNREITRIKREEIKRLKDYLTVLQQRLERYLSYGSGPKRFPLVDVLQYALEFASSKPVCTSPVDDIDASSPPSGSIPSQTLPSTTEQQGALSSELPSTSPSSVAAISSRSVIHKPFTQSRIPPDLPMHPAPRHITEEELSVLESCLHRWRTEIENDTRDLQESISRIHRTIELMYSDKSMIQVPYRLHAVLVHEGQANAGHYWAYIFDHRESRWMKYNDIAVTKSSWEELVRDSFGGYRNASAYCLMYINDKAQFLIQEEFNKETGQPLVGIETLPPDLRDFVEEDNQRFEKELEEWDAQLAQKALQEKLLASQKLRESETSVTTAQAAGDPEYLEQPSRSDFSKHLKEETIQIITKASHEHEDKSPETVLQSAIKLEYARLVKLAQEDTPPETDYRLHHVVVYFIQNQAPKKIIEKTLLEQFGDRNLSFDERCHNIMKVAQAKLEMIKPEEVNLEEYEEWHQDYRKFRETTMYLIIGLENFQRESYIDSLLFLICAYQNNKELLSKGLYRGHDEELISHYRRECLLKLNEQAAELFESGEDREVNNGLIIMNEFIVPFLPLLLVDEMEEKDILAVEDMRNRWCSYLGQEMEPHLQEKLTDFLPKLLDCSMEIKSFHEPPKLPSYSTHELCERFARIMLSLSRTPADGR
Description: Ubiquitin-Rhodamine 110 Assay for USP25 Activity, Example A-2. Type of assay: biochemical. As to conditions: Ubiquitin-Rhodamine 110 assay, Example A-2; read-out: USP25 A-2 IC50 range. The method in brief:
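Fluorescence (ex 485, em 535 nm) of cleaved ubiquitin-rhodamine 110 (25 nM, below Km) gave IC50 via 4-parameter logistic fit. Reaction: 45 min, room temperature, citric acid stop, after 30 min compound preincubation with 75 pM USP25-His6 in 20 mM Tris pH 8.0, 3 mM BME, 0.03% BGG, 0.01% Triton X-100; top dose 25 μM.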
In the case of `COC[C@H]1C[C@H](N)CN1c1ccc2c(c1)OC[C@H](NC(=O)c1sc3nc(C)ccc3c1N)C2` [Example 261, 3-amino-N-[(3R)-7-[(2R,4S)-4-amino-2-(methoxymethyl)pyrrolidin-1-yl]-3,4-dihydro-2H-1-benzopyran-3-yl]-6-methylthieno[2,3-b]pyridine-2-carboxamide], the IC50 lay within 50 to 200 nM.
As for `CO[C@@]1(C)CN(c2ccc3c(c2)OC[C@H](NC(=O)c2sc4nc(C)ccc4c2N)C3)C[C@@H]1N` [Example 281, 3-amino-N-[(3R)-7-[(3S,4S)-4-amino-3-methoxy-3-methylpyrrolidin-1-yl]-3,4-dihydro-2H-1-benzopyran-3-yl]-6-methylthieno[2,3-b]pyridine-2-carboxamide], the figure is 200 to 2000 nM.
As to `CO[C@H]1CN(c2ccc3c(n2)OC[C@H](NC(=O)c2sc4nc(C)cc(C)c4c2N)C3)C[C@@H]1N` [Example 286, 3-amino-N-[(3R)-7-[(3S,4S)-3-amino-4-methoxypyrrolidin-1-yl]-2H,3H,4H-pyrano[2,3-b]pyridin-3-yl]-4,6-dimethylthieno[2,3-b]pyridine-2-carboxamide], the IC50 is greater than 2000 nM.
Consider `CO[C@@]12CNC[C@@H]1CN(c1ccc3c(c1)OC[C@H](NC(=O)c1sc4nc(C)ccc4c1N)C3)C2` [Example 292, N-[(3R)-7-[(3aR,6aR)-3a-methoxy-octahydropyrrolo[3,4-c]pyrrol-2-yl]-3,4-dihydro-2H-1-benzopyran-3-yl]-3-amino-6-methylthieno[2,3-b]pyridine-2-carboxamide], for which the IC50 lay within 200 to 2000 nM.
In the case of `Cc1ccc2c(N)c(C(=O)N[C@H]3COc4cc(N5C[C@H]6CCN[C@H]6C5)ccc4C3)sc2n1` [Example 305, N-[(3R)-7-[(3aR,6aR)-octahydropyrrolo[3,4-b]pyrrol-5-yl]-3,4-dihydro-2H-1-benzopyran-3-yl]-3-amino-6-methylthieno[2,3-b]pyridine-2-carboxamide], the IC50 lay within 50 to 200 nM.
For `COC[C@H]1CN(c2ccc3c(n2)CC[C@H](NC(=O)c2sc4nc(C)cnc4c2N)C3)C[C@H]1N` [Example 299, 7-amino-N-[(6S)-2-[(3S,4S)-3-amino-4-(methoxymethyl)pyrrolidin-1-yl]-5,6,7,8-tetrahydroquinolin-6-yl]-3-methylthieno[2,3-b]pyrazine-6-carboxamide] the value was 200 to 2000 nM; for `COC[C@]1(C)CN(c2ccc3c(n2)CC[C@H](NC(=O)c2sc4nc(C)ccc4c2N)C3)C[C@H]1N` [Example 344, 3-amino-N-[(6S)-2-[(3R,4S)-4-amino-3-(methoxymethyl)-3-methylpyrrolidin-1-yl]-5,6,7,8-tetrahydroquinolin-6-yl]-6-methylthieno[2,3-b]pyridine-2-carboxamide], 200 to 2000 nM; for `COC[C@H]1CN(c2cc(F)c3c(c2F)OC[C@H](NC(=O)c2sc4nc(C)cc(C)c4c2N)C3)C[C@H]1N` [Example 278, 3-amino-N-[(3R)-7-[(3S,4S)-3-amino-4-(methoxymethyl)pyrrolidin-1-yl]-5,8-difluoro-3,4-dihydro-2H-1-benzopyran-3-yl]-4,6-dimethylthieno[2,3-b]pyridine-2-carboxamide], 50 to 200 nM.
Turning to `CCOC1CN(c2ccc3c(c2)OC[C@H](NC(=O)c2sc4nc(C)cc(C)c4c2N)C3)C[C@@H]1N` (stereo in doubt) [Example 323, 3-amino-N-[(3R)-7-[(3S,4R)-3-amino-4-ethoxypyrrolidin-1-yl]-3,4-dihydro-2H-1-benzopyran-3-yl]-4,6-dimethylthieno[2,3-b]pyridine-2-carboxamide], the IC50 lay within 50 to 200 nM.
As for `CCOC[C@@H]1CN(c2ccc3c(c2)OC[C@H](NC(=O)c2sc4nc(C)ccc4c2N)C3)C[C@@H]1N` [Example 313, 3-amino-N-[(3R)-7-[(3R,4R)-3-amino-4-(ethoxymethyl)pyrrolidin-1-yl]-3,4-dihydro-2H-1-benzopyran-3-yl]-6-methylthieno[2,3-b]pyridine-2-carboxamide], the figure is 200 to 2000 nM; as for `COC[C@H]1CN(c2nc3c(cc2F)C[C@H](NC(=O)c2sc4nc(C)ccc4c2N)CC3)C[C@H]1N` (single isomer, unassigned) [Example 303], greater than 2000 nM.
